Reference: ChEMBL document CHEMBL6092199, “Naphthalen-1-ylethanamine-containing small molecule inhibitors of the papain-like protease of SARS-CoV-2” (Eur J Med Chem, 2024)
Calls of active or inactive are those of the source. The rule behind the calls is not given here.

How the values were obtained:
[1] = Cytotoxicity against african green monkey Vero E6 cells incubated for 3 days by CCK8 assay; type: toxicity, cell-based, Vero C1008; details: chlorocebus sabaeus, time 3 day
[2] = tested on: SARS-CoV-2; test: Antiviral activity against SARS-CoV-2 JPN/TY/WK-521 infected in Vero E6 cells assessed as reduction in viral RNA level incubated for 3 days by RT-qPCR analysis; type: functional, organism-based; details: Severe acute respiratory syndrome coronavirus 2, JPN/TY/WK-521, Vero C1008, 72 h
[3] = target: T1, Replicase polyprotein 1ab (Severe acute respiratory syndrome coronavirus 2, UniProt P0DTD1); test: Inhibition of SARS-CoV-2 PL protease using (Z)-Arg-Leu-Arg-Gly-Gly-4-methyl-coumaryl-7-amide as substrate and varying concentration of […] by Lineweaver-burk plot analysis
[4] = Inhibition of SARS-CoV-1 PL protease using (Z)-Arg-Leu-Arg-Gly-Gly-4-methyl-coumaryl-7-amide as substrate and varying concentration of […] by Lineweaver-burk plot analysis; set-up: species or system Severe acute respiratory syndrome-related coronavirus
[5] = target: T1, Replicase polyprotein 1ab; test: Inhibition of SARS-CoV-2 PL protease using varying concentration of (Z)-Arg-Leu-Arg-Gly-Gly-4-methyl-coumaryl-7-amide as substrate by Dixon plot analysis
[6] = Inhibition of SARS-CoV-1 PL protease using (Z)-Arg-Leu-Arg-Gly-Gly-4-methyl-coumaryl-7-amide as substrate measured every 150 sec for 1 hr by multimode reader assay; set-up: species or system Severe acute respiratory syndrome-related coronavirus
[7] = target: T1, Replicase polyprotein 1ab; test: Inhibition of SARS-CoV-2 PL protease using (Z)-Arg-Leu-Arg-Gly-Gly-4-methyl-coumaryl-7-amide as substrate measured every 150 sec for 1 hr by multimode reader assay
[8] = Inhibition of SARS-CoV-1 PL protease using varying concentration of (Z)-Arg-Leu-Arg-Gly-Gly-4-methyl-coumaryl-7-amide as substrate by Dixon plot analysis; set-up: species or system Severe acute respiratory syndrome-related coronavirus
[9] = tested on: SARS-CoV-2; test: Antiviral activity against SARS-CoV-2 JPN/TY/WK-521 infected in Vero E6 cells assessed as reduction in cytopathic effect at 1 to 100 uM pretreated with virus for 1 hr followed by viral washout and compound exposure for 3 days by immunocytochemistry analysis; type: functional, organism-based; details: Severe acute respiratory syndrome coronavirus 2, dose 1-100 µM, time 3.0 day

## Cc1ccc(CNC(=O)c2c(F)c(F)cc(F)c2F)cc1C(=O)N[C@H](C)c1cccc2ccccc12
[1]
  CC50 at 72 h: > 100 µM
[2]
  EC50: 44.8 µM

## Cc1ccc(CNC(=O)c2ccc(C(F)(F)F)cc2)cc1C(=O)N[C@H](C)c1cccc2ccccc12
[1]
  CC50 at 72 h: > 100 µM
[2]
  EC50: 18.7 µM

## Cc1ccc(CNC(=O)c2cccc(F)c2F)cc1C(=O)N[C@H](C)c1cccc2ccccc12
[1]
  CC50 at 72 h: > 100 µM
[2]
  EC50: 52.3 µM

## Cc1ccc(CNC(=O)OC(C)(C)C)cc1C(=O)N[C@H](C)c1cccc2cc3ccccc3cc12
[1]
  CC50 at 72 h: > 100 µM
[2]
  EC50: > 100 µM

## Cc1ccc(CNC(=O)c2cc(C(F)(F)F)cc(C(F)(F)F)c2)cc1C(=O)N[C@H](C)c1cccc2ccccc12
[1]
  CC50 at 72 h: > 100 µM
[2]
  EC50: 72.8 µM

## CNCc1ccc(C)c(C(=O)N[C@H](C)c2cccc3ccccc23)c1
[1]
  CC50 at 72 h: > 100 µM
[2]
  EC50: 25.2 µM

## Cc1ccc(CNC(=O)c2ccc(F)cc2C(F)(F)F)cc1C(=O)N[C@H](C)c1cccc2ccccc12
[1]
  CC50 at 72 h: > 100 µM
[2]
  EC50: > 100 µM

## Cc1ccc(CNC(=O)c2ccc(C(F)(F)F)c(F)c2)cc1C(=O)N[C@H](C)c1cccc2ccccc12
[1]
  CC50 at 72 h: > 100 µM
[2]
  EC50: > 100 µM

## Cc1ccc(CNC(=O)c2ccc(C(C)(C)C)cc2)cc1C(=O)N[C@H](C)c1cccc2ccccc12
[3]
  Ki: 4.1 µM
[4]
  Ki: 0.32 µM
[5]
  Ki: 4.6 µM
[1]
  CC50 at 72 h: 58.2 µM
[2]
  EC50: 7.3 µM
[6]
  IC50: 0.47 µM
[7]
  IC50: 3.1 µM
[8]
  Ki: 0.54 µM

## Cc1ccccc1C(=O)NCc1ccc(C)c(C(=O)N[C@H](C)c2cccc3ccccc23)c1
[1]
  CC50 at 72 h: > 100 µM
[2]
  EC50: 15.1 µM

## Cc1ccc(CN)cc1C(=O)N[C@H](C)c1cccc2cc3ccccc3cc12
[1]
  CC50 at 72 h: 40.5 µM
[2]
  EC50: 27.3 µM

## Cc1ccc(CNC(=O)CC(F)(F)F)cc1C(=O)N[C@H](C)c1cccc2ccccc12
[1]
  CC50 at 72 h: > 100 µM
[2]
  EC50: 40.7 µM

## Cc1ccc(CNC(=O)C(=O)O)cc1C(=O)N[C@H](C)c1cccc2cc3ccccc3cc12
[1]
  CC50 at 72 h: > 100 µM
[2]
  EC50: > 100 µM

## Cc1ccc(CNC(=O)c2ccc(C(F)(F)F)cc2F)cc1C(=O)N[C@H](C)c1cccc2ccccc12
[1]
  CC50 at 72 h: > 100 µM
[2]
  EC50: > 100 µM

## Cc1ccc(CNC(=O)c2cc(F)c(F)cc2F)cc1C(=O)N[C@H](C)c1cccc2ccccc12
[1]
  CC50 at 72 h: > 100 µM
[2]
  EC50: > 100 µM

## Cc1cccc(C(=O)NCc2ccc(C)c(C(=O)N[C@H](C)c3cccc4ccccc34)c2)c1
[1]
  CC50 at 72 h: > 100 µM
[2]
  EC50: 44 µM

## Cc1ccc(CNC(=O)c2cccc(C(F)(F)F)c2C)cc1C(=O)N[C@H](C)c1cccc2ccccc12
[1]
  CC50 at 72 h: > 100 µM
[2]
  EC50: > 100 µM

## Cc1ccc(CNC(=O)c2ccc([N+](=O)[O-])cc2)cc1C(=O)N[C@H](C)c1cccc2ccccc12
[1]
  CC50 at 72 h: > 100 µM
[2]
  EC50: 40.3 µM

## CCOC(=O)C(=O)NCc1ccc(C)c(C(=O)N[C@H](C)c2cccc3ccccc23)c1
[1]
  CC50 at 72 h: > 100 µM
[2]
  EC50: > 100 µM

## Cc1ccc(C(=O)NCc2ccc(C)c(C(=O)N[C@H](C)c3cccc4ccccc34)c2)cc1
[1]
  CC50 at 72 h: > 100 µM
[2]
  EC50: > 100 µM

## Cc1ccc(CNC(=O)c2ccc(F)cc2)cc1C(=O)N[C@H](C)c1cccc2ccccc12
[1]
  CC50 at 72 h: > 100 µM
[2]
  EC50: 25.7 µM

## Cc1ccc(CNC(=O)c2cccc(C(F)(F)F)c2)cc1C(=O)N[C@H](C)c1cccc2ccccc12
[1]
  CC50 at 72 h: > 100 µM
[2]
  EC50: 15.7 µM

## Cc1ccc(N)cc1C(=O)N[C@H](C)c1cccc2ccccc12
[4]
  Ki: 0.12 µM
[1]
  CC50 at 72 h: > 100 µM
[2]
  EC50: 24.7 µM
[6]
  IC50: 0.05 µM
[8]
  Ki: 0.29 µM

## Cc1ccc(CNC(=O)c2ccccc2[N+](=O)[O-])cc1C(=O)N[C@H](C)c1cccc2ccccc12
[1]
  CC50 at 72 h: 55.6 µM
[2]
  EC50: 18.3 µM

## Cc1ccc(CN)cc1C(=O)N[C@H](C)c1cccc2ccccc12
[1]
  CC50 at 72 h: > 100 µM
[2]
  EC50: 15.5 µM

## Cc1ccc(CNC(=O)c2ccccc2F)cc1C(=O)N[C@H](C)c1cccc2ccccc12
[1]
  CC50 at 72 h: > 100 µM
[2]
  EC50: 13.2 µM

## Cc1ccc(CNC(=O)c2ccc([N+](=O)[O-])c(F)c2)cc1C(=O)N[C@H](C)c1cccc2ccccc12
[1]
  CC50 at 72 h: > 100 µM
[2]
  EC50: 76.9 µM

## Cc1ccc(CNC(=O)C(N)=O)cc1C(=O)N[C@H](C)c1cccc2ccccc12
[1]
  CC50 at 72 h: > 100 µM
[2]
  EC50: > 100 µM

## Cc1ccc(CNC(=O)C(=O)O)cc1C(=O)N[C@H](C)c1cccc2ccccc12
[3]
  Ki: 4.4 µM
[4]
  Ki: 0.12 µM
[5]
  Ki: 4.6 µM
[9]
  Activity: Active
[1]
  CC50 at 72 h: > 100 µM
[2]
  EC50: 2.7 µM
[6]
  IC50: 0.46 µM
[7]
  IC50: 5.9 µM
[8]
  Ki: 0.18 µM

## Cc1ccc(CNC(=O)c2cccc(C(F)(F)F)c2F)cc1C(=O)N[C@H](C)c1cccc2ccccc12
[1]
  CC50 at 72 h: > 100 µM
[2]
  EC50: 29.1 µM

## Cc1ccc(CNC(=O)c2ccccc2)cc1C(=O)N[C@H](C)c1cccc2ccccc12
[1]
  CC50 at 72 h: > 100 µM
[2]
  EC50: 35.4 µM

## Cc1ccc(CNC(=O)C(F)(F)F)cc1C(=O)N[C@H](C)c1cccc2ccccc12
[1]
  CC50 at 72 h: > 100 µM
[2]
  EC50: 30.3 µM

## CC(=O)NCc1ccc(C)c(C(=O)N[C@H](C)c2cccc3ccccc23)c1
[1]
  CC50 at 72 h: > 100 µM
[2]
  EC50: > 100 µM

## Cc1ccc(CNC(=O)c2ccc(F)cc2F)cc1C(=O)N[C@H](C)c1cccc2ccccc12
[1]
  CC50 at 72 h: > 100 µM
[2]
  EC50: > 100 µM

## Cc1ccc(CNC(=O)C(C(F)(F)F)C(F)(F)F)cc1C(=O)N[C@H](C)c1cccc2ccccc12
[1]
  CC50 at 72 h: > 100 µM
[2]
  EC50: > 100 µM

## Cc1ccc(CNC(=O)c2cccc(F)c2)cc1C(=O)N[C@H](C)c1cccc2ccccc12
[1]
  CC50 at 72 h: > 100 µM
[2]
  EC50: 57.4 µM

## Cc1ccc(CNC(=O)c2ccccc2C(F)(F)F)cc1C(=O)N[C@H](C)c1cccc2ccccc12
[1]
  CC50 at 72 h: > 100 µM
[2]
  EC50: 27.4 µM

## Cc1ccc(CNC(=O)c2ccc(F)c(F)c2)cc1C(=O)N[C@H](C)c1cccc2ccccc12
[3]
  Ki: 5.6 µM
[4]
  Ki: 0.16 µM
[5]
  Ki: 5.3 µM
[9]
  Activity: Active
[1]
  CC50 at 72 h: > 100 µM
[2]
  EC50: 3.8 µM
[6]
  IC50: 0.3 µM
[8]
  Ki: 0.28 µM

## Cc1ccc(CNC(=O)c2ccc(F)c(F)c2)cc1C(=O)N[C@H](C)c1cccc2cc3ccccc3cc12
[1]
  CC50 at 72 h: > 100 µM
[2]
  EC50: > 100 µM

## Cc1ccc(CNC(=O)c2c(F)cc(F)cc2F)cc1C(=O)N[C@H](C)c1cccc2ccccc12
[1]
  CC50 at 72 h: > 100 µM
[2]
  EC50: > 100 µM
